In general, fraction unbound refers to free concentration divided by total concentration. Read a high fraction unbound as much free substance.

Data set [1] relates to ID8-Vegf Defb29 cells stably expressing firefly luciferase. Nature of the data set: Syngeneic ID8-luc ovarian tumor model, IP. The format is in vivo. The settings on record: C57BL6 mice, 40 mg/Kg every 3 days IP. The protocol: Female C57BL6 mice were inoculated IP with 3x10^5 ID8-Defb29/VegfA-luc cells in 100 μL PBS. At day 3, mice were imaged for basal level luminescence activity with a Xenogen IVIS 200 after IP injection with luciferin (0.3 mg in 100 μL water). Mice were randomized into groups and treated IP with compounds or vehicle (25% (w/v) β-Hydroxypropylcyclodextrin in water), and imaged again on days indicated.
In addition to direct tumor cell killing, it is possible that RA475 may trigger an immunogenic cell death and thus anti-tumor immunity that could contribute to tumor control. Therefore, we elected to first test the treatment potential of RA475 in an ovarian tumor in a syngeneic mouse model. Since ovarian cancer is shed into, and spread within the peritoneal cavity, female C57BL6 mice were injected IP with ID8-Vegf Defb29 cells stably expressing firefly luciferase (0.5 x 10^6 cells ID8-luc) in PBS (100 μL). After 72 h, mice were imaged for their basal luminescence levels using an IVIS200 imager to confirm the presence of viable tumor cells. Mice with visible luminescence were randomized into two groups and treated with Vehicle (25% β-hydroxy propylcyclodextrin in water, 200 μL, every 3 days, IP) and RA475 (40 mg/Kg, every 3 days, IP). Mice were weighed and, after administration of luciferin (100 μL, 7.8 mg/mL), imaged every week to assess bioluminescence associated with tumor burden. […]
Fig 6 Treatment with RA475 of mice bearing an orthotopic syngeneic ovarian cancer model tumor. Female C57BL6 mice bearing ID8-Luc tumor were monitored for tumor burden by IVIS imaging (A), survival (B) and animal weight (C) after treatment with IP treatment every three days with RA475 (40mg/Kg, n = 8) or vehicle alone (n = 7). […] After 72 h, mice were imaged after administration of luciferin (100 μL, 7.8 mg/mL) for their basal luminescence levels using an IVIS200 imager. Mice with visible luminescence were randomized into two groups and treated with Vehicle alone (25% β-hydroxy propylcyclodextrin in water, 200 μL, every 3 days, IP) or RA475 (40 mg/Kg, every 3 days, IP). […]

The nature of data set [2]: Stability in murine plasma. In kind it is in vitro ADME, mouse. The note with it: 10 μM, 1 h at 37°C. The protocol:
(§1) Human and mouse liver microsomes and NADPH regenerating system solutions were purchased from Corning Life Sciences (Tewsbury, MA). Human and mouse K2EDTA-treated plasma was purchased from BioIVT (Westbury, NY). Metabolic studies in liver microsomes (0.125 mg/mL) were conducted in 1x PBS (pH 7.4), NADPH-generating system, and 10 μM RA475 in a final volume of 250 μL. An incubation mixture with or without NADPH-generating system, as well as a neat solution prepared without microsomes and NADPH-generating system was used. RA475 was added at the same concentration level into human and mouse EDTA plasma. All reactions were initiated with the addition of RA475. Incubations were performed in glass tubes maintained at 37°C in a shaker bath. At 0, 30, and 60 min, 10 μL samples were withdrawn from the reaction mixture, and 0.5 mL of acetonitrile containing internal standard was added to each. Samples were vortex-mixed and subjected to centrifugation for 5 min at 1430 x g. A 10 μL aliquot of the supernatant was injected onto the LC-MS/MS instrument for qualitative analysis using a temperature-controlled autosampling device operating at 5°C (See Pharmacokinetic section).

Data set [3] is described as follows: Stability in liver microsomes (species not separated in text). The format is in vitro ADME. How it is done: as §1
On the technique in general: Liver microsomes are vesicles of endoplasmic reticulum, rich in cytochrome P450 enzymes.

Data set [4] can be described thus: Mouse plasma protein binding, equilibrium dialysis. The format is in vitro ADME. The settings on record: pH 7.4, dialysis 5 h. How it is done: The assay was performed in a multiple-use 96-well dialysis unit (HTD96b dialyzer). Each individual well unit consisted of 2 chambers separated by a vertically aligned dialysis membrane of predetermined pore size (MWCO 12–14 kDa). 120 μL of non-diluted plasma spiked with the compound (1 μM, final DMSO concentration 1%) was added to one chamber, and the same volume of PBS buffer pH 7.4 to the other chamber. The HTD96b dialyzer was covered with adhesive sealing film and incubated 5 h at 37°C while shaking at 100 rpm. For sample preparation, an aliquot of the contents of each chamber was mixed with the same volume of the blank opposite matrix. In order to define non-specific loss of the compound during this assay, a standard solution was created by mixing an aliquot of spiked plasma with blank buffer without dialysis. Two aliquots of the standard solution were incubated at 37°C, shaking at 100 rpm for 5 h (recovery samples). The other two aliquots were immediately diluted with acetonitrile and stored at 4°C until analysis (stability samples). All samples were diluted 5-fold with internal standard diluted in 100% methanol with subsequent plasma proteins sedimentation by centrifuging at 6000 rpm for 5 minutes. Supernatants were analyzed using LC-MS/MS. The percentage of plasma protein bound compound, recovery and stability were calculated using following equations. […]
For orientation: Equilibrium dialysis compares concentrations on both sides of a semipermeable membrane.

SMILES strings stand for the structures. A value given as a limit tells only on which side of the number the result lay.

Consider `Cl.Cl.N#Cc1ccc(/C=C2/C(=O)/C(=C/c3ccc(C#N)cc3)C23CCN(C(=N)N)CC3)cc1` [RA475, 1,3-bis((E)-4-cyanobenzylidene)-2-oxo-7-azaspiro[3.5]nonane-7-carboximidamide dihydrochloride], for which, in data set [1], the survival entry is listed as “prolonged survival” and the “tumor burden by bioluminescence” value is “tumor control”. Also, the animal weight result in data set [1] (while on treatment) was “continue to gain weight”. The stability in plasma entry in data set [2] is “did not degrade”. Also, in data set [3], the “present after 1 h in liver microsomes” value was determined as 93%. The compound also displayed a fraction unbound at 5 h, 1 μM in data set [4] below 0.01.
